{"source": "patent US20250152685A1", "about": "“METHOD OF MAKING A PERSONALIZED CANCER VACCINE” (FLOW PHARMA, INC., priority 2019, published 2025)", "biological_target": "DRB3*0202 (Homo sapiens, UniProt P01903+P79483, A212P/D57E/F66Y/L67A/R103Q/R218S/R40L/S89Y/T80R/V86D/Y55F/Y59H)", "sequence (P01903 26-254 limits assumed)": "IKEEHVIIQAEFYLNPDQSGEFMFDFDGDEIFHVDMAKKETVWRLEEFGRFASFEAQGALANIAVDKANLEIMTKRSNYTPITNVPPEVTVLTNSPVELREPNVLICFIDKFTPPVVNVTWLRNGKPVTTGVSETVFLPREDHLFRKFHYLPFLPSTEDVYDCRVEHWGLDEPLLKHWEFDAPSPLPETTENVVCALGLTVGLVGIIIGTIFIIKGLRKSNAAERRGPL", "sequence (P79483 30-266 R40L/Y55F/D57E/Y59H/F66Y/L67A/T80R/V86D/S89Y/R103Q/A212P/R218S limits assumed)": "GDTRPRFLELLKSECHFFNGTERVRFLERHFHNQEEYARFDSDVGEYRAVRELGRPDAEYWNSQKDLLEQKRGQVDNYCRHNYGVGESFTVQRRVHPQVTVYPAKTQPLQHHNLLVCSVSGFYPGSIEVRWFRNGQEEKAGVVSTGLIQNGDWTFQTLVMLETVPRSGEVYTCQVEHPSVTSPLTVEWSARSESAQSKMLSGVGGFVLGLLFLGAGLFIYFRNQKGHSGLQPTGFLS", "test": "peptide affinity binding assay (in-vitro peptide-MHC binding affinity)", "conditions": "PADRE and DRB3*0202", "data": [{"smiles": "CC(C)C[C@H](NC(=O)[C@@H](NC(=O)[C@H](Cc1c[nH]c2ccccc12)NC(=O)[C@H](C)NC(=O)[C@H](C)NC(=O)[C@@H](NC(=O)[C@H](Cc1ccccc1)NC(=O)[C@H](CCCCN)NC(=O)[C@H](C)N)C(C)C)[C@@H](C)O)C(=O)N[C@@H](CCCCN)C(=O)N[C@@H](C)C(=O)N[C@@H](C)C(=O)N[C@@H](C)C(=O)O", "note": "[PADRE]", "values": [{"measurement": "peptide-MHC binding affinity before and after the addition of an infrared fluorophore ligand", "value": "essentially unchanged"}]}]}
